Data as given in patent US7868163B2, “Adenyl dinucleotides with antitumour activity and a method of preparing thereof” (Universita' Degli Studi Di Genova, priority 2005, dated 2011).
Like-named read-outs stand apart in the source and are kept apart here.

Key:
[1] = tested on: HeLa-CD38^+ (whole cells); assay: Hydrolysis by CD38+ HeLa whole cells
Description: (§1) ADP-ribosyl cyclases from lower and higher Metazoa were incubated in the presence of 0.1 mM cADPR and 1 mM adenine at pH 7.4 in 10 mM Tris-HCl (A, B and C) or in PBS-glucose (D) at 22° C. (A and B) or at 37° C. (C and D) for 4 hours. Aliquots of the various incubations were deproteinised with TCA (trichloroacetic acid) and subjected to HPLC (analytical phosphate). Chromatograms representative of each incubation are shown. A. A. polypoides; B. A. californica; C. Human CD38 (recombinant); D. Human HeLa cells transfected with sense and antisense human CD38 (dashed chromatogram).
(§2) In table 1, the absolute values of the peak-forming and -hydrolysing activities are compared with the cADPR-forming and -hydrolysing activities for each enzyme. The activities are expressed as nmol/min/mg.

CD38^− cells = assay: Uptake of extracellularly added dinucleotides in CD38- cells; assay type: in vitro ADME, human; details: 15 μM added extracellularly
[2] = Storage stability of purified lyophilised peaks; details: stored at −20° C., several months (approx. 6)
Description: The cyclase purified from A. polypoides was used for the production of the dinucleotides for structural and functional studies. In a total volume of 0.4 ml of 10 mM Tris-HCl, pH 7.0, 0.05 mg of purified cyclase were incubated with 1 mM cADPR (or NAD^+), 5 mM adenine and 2 mM MgCl2 at room temperature. cADPR or NAD^+ was added to the reaction mixture every 6 hours, while every 24 hours fresh cyclase was added and an aliquot of the incubation was deproteinised with TCA (5% final concentration) and analysed by HPLC (analytical phosphate) to monitor dinucleotide production. After 3-5 days, the resulting incubation was extracted with TCA and 250 μl aliquots were injected into an HPLC column (preparative phosphate). The P18, P24 and P31 peaks were collected, lyophilised in a RotoVapor, re-dissolved in deionised water and injected into an HPLC column (preparative formate). […] The purified peaks produced by Axinella cyclase were used in in vitro experiments on the various cell types described hereinafter, for the enzymatic production of mononucleotides and nucleosides (see below), as internal and external HPLC standards to identify the dinucleotides in cell extracts, and for detecting the absorption spectra stored in the liquid chromatograph library as standards.

[3] = tested on: CFC (colony forming cells); assay: CFC colony growth from cord blood mononuclear cells in semi-solid medium; assay type: cell-based, human; details: Homo sapiens; 24 hours incubation of cord blood mononuclear cells, colonies counted after 2 weeks; read-out: IC50, inhibition of CFC colony growth
Description: Mononuclear cells isolated from cord blood were incubated in the presence of various concentrations of P18 (▴), P24 (▪) and the iso-adenosine units resulting from the enzymatic digestion of P18 (Δ) and P24 (□). After 24 hours, aliquots of cells (1-2×10^4) were seeded in semi-solid medium to allow for colony growth. Results are expressed as percentage of inhibition of colony growth compared with controls, represented by cells incubated with the same dilution of chromatographic buffer as present in the HPLC-purified compounds. The IC50 values were obtained from the logarithmic regression curves (R≧0.97). The results shown in this figure are the mean from at least three different experiments.
Mononuclear cells were isolated from cord blood (CB MNC) by a density gradient, washed by centrifugation and resuspended in complete medium (Mosmann, T. (1983) J. Immunol. Methods 65, 55-63). Cells (10^6/ml) were incubated for 24 hours in complete medium in the presence of different dinucleotides at concentrations comprised between 20 and 0.4 μM. Then, aliquots of cells (1-2×10^4) were seeded in semi-solid medium, supplemented with haemopoietic growth factors (Methocult, Stem Cell Technologies, Vancouver, BC), in order to allow colonies to develop. After 2 weeks in culture, the colonies which were grown were microscopically identified according to standard criteria (CFU-E, CFU-GM and CFU-GEM) and counted: each colony identifies a colony forming cell (CFC).

Recombinant CD38 = assay: Hydrolysis by recombinant CD38
Description: as §1, §2

[4] = tested on: A. polypoides ADP-ribosyl cyclase; assay: Hydrolysis by purified Axinella polypoides ADP-ribosyl cyclase
Description: as §1, §2

[5] = target: T1, A. californica ADP-ribosyl cyclase (Aplysia californica, UniProt P29241); assay: Hydrolysis by Aplysia californica ADP-ribosyl cyclase; assay type: in vitro ADME; details: P18 to adenine and ADPR
T1 construct: The cyclase purified from the mollusc Aplysia californica was purchased from Sigma; purchased Sigma; host or cells: purified from the mollusc
T1 sequence (P29241 25-282): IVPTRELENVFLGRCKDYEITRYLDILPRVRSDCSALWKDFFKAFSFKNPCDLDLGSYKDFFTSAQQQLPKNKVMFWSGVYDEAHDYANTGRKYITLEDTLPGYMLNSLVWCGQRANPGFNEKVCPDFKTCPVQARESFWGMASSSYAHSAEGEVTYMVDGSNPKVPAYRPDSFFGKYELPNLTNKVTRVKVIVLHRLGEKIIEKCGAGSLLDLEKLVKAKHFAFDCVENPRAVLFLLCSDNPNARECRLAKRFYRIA
Description: (A and B) or at 37° C. (C and D) for 4 hours. […] Chromatograms representative of each incubation are shown. A. A. polypoides; B. A. californica; C.
The activities are expressed as nmol/min/mg.

**Q.** For `Nc1ncnc2c1ncn2[C@@H]1O[C@H](CO[P@](=O)(O)O[P@](=O)(O)OC[C@H]2O[C@@H](n3cnc4c(N)ncnc43)[C@H](O)[C@@H]2O)[C@@H](O)[C@H]1O` [P31, diadenosine diphosphate, reference compound], which hydrolysis activity ([1]; HeLa-CD38^+ whole cells, P18 and P24 to adenine and ADPR) is on record?
**A.** The hydrolysis activity was 0.15 nmol/min/mg.

**Q.** And the “rate of increase of intracellular concentration (uptake)” value (CD38^− cells)?
**A.** Its value is “approx. 2.4 pmol/min/mg”.

**Q.** What about the degradation on storage [2] of the same compound?
**A.** Its degradation on storage is “no dinucleotide degradation was observed”.

**Q.** For `Nc1c2ncnc-2ncn1[C@@H]1O[C@H](CO)[C@@H](O)[C@H]1O` [iso-adenosine from P18, 1-β-D-ribofuranosyladenine], which IC50 [3] is on record?
**A.** The IC50 was 37 µM.

**Q.** For `N=c1c2ncn3c2ncn1[C@@H]1O[C@H](COP(=O)(O)OP(=O)(O)OC[C@H]2O[C@@H]3[C@H](O)[C@@H]2O)[C@@H](O)[C@H]1O` [cADPR, cyclic ADP-ribose, reference compound], which hydrolysis activity (Recombinant CD38) is on record?
**A.** The hydrolysis activity was 308 nmol/min/mg.

**Q.** And the hydrolysis activity [1]?
**A.** The hydrolysis activity was 0.49 nmol/min/mg.

**Q.** And the hydrolysis activity [4]?
**A.** Its hydrolysis activity is 170 nmol/min/mg.

**Q.** And the hydrolysis activity [5]?
**A.** The hydrolysis activity was 770 nmol/min/mg.

**Q.** With `Nc1ncn([C@@H]2O[C@H](CO)[C@@H](O)[C@H]2O)c2ncnc1-2` [iso-adenosine from P24, 3-β-ribofuranosyladenine] as the compound, how does the IC50 [3] read?
**A.** The IC50 was 5 µM.
